These results are taken from ChEMBL document CHEMBL5661967, “Antitumor activity of HKI-272, an orally active, irreversible inhibitor of the HER-2 tyrosine kinase” (Cancer Res, 2004).

The assay has as its target Receptor tyrosine-protein kinase erbB-2 (Homo sapiens, UniProt P04626). Nature of the assay: Inhibition of recombinant N-terminal His6-tagged HER2 cytoplasmic domain (676 to 1255 residues) (unknown origin) expressed in baculovirus infected Sf9 insect cells assessed as reduction in autophosphorylation preincubated for 15 mins followed by ATP addition and measured after 1 hr by ELISA. (In an ELISA, binding on a coated surface is turned into a signal by an enzyme label.)

Chain of Receptor tyrosine-protein kinase erbB-2 (P04626 whole entry, the tested form may be a part): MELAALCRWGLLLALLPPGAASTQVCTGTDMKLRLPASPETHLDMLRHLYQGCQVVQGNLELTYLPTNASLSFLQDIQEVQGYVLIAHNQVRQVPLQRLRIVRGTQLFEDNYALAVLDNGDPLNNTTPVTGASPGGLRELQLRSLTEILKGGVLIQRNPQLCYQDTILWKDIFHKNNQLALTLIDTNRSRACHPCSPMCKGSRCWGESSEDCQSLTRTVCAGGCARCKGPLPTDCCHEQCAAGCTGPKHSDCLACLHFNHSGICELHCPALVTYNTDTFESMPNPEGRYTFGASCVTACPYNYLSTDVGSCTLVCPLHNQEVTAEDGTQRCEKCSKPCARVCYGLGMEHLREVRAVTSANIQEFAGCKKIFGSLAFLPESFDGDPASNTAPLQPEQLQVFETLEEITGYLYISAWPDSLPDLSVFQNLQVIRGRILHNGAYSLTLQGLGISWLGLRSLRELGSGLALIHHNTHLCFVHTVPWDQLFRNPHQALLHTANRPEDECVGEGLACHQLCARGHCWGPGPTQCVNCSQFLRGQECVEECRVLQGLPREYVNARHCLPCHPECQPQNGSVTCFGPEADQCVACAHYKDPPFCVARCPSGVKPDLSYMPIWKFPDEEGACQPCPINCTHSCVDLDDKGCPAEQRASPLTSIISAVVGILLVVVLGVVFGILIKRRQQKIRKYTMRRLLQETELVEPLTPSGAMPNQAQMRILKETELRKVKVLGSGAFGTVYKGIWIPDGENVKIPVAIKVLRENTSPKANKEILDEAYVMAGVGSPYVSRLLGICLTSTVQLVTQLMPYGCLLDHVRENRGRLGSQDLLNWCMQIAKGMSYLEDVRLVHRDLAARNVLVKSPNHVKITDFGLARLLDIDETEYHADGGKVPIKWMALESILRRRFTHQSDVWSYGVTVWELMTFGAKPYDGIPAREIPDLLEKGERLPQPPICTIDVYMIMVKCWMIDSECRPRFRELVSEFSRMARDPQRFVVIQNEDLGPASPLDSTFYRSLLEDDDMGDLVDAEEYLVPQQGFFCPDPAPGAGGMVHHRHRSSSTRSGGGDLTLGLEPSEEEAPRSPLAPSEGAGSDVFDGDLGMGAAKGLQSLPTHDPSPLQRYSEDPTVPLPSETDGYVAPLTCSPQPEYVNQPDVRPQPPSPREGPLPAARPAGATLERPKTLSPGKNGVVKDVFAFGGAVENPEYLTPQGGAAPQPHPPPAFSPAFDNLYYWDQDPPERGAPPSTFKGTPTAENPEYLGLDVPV

As a reminder, the IC50 is the midpoint of a concentration-inhibition curve. Turning to `CCOc1cc2ncc(C#N)c(Nc3ccc(F)c(Cl)c3)c2cc1NC(=O)/C=C/CN(C)C` [PELITINIB], the IC50 is 1260 nM.
